Blank lines part the entries; values can stand above or below the molecule they belong to. d = 2'-deoxy (DNA); r = 2'-OH (RNA)
Tests used:
H460 lung cancer cells = assay: TR3 induction and apoptosis in H460 lung cancer cells; type: cell-based
Method: (§1) In addition to TPA, AHPN and its structural analogs also induce TR3 expression and TR3-dependent apoptosis in an epithelial cancer cell line. […] Lysates were then incubated with anti-Bcl-2 antibody. Immunoblotting of immunoprecipitates was conducted using anti-TR3 and anti-Bcl-2 antibodies.
BH3-only proteins exert their apoptotic effects through either Bax or Bak. The involvement of Bax and Bak in Bcl-2-dependent apoptosis induced by TR3 was therefore examined.
To determine whether Bak, which was highly expressed in H460 cells, played a role in Bcl-2-dependent apoptosis induced by TR3, the effects of Bak siRNA transfection was examined. […] Thus, Bcl-2-dependent apoptosis induced by TR3 depends on multidomain pro-apoptotic Bcl-2-family proteins such as Bak.

[1] = tested on: MGC80-3 gastric cancer cells; assay: TR3 mitochondrial targeting in MGC80-3 gastric cancer cells; type: cell-based; conditions: MGC80-3 cells treated with 3-Cl-AHPC
Method: C. Small interfering RNA (siRNA)—To complement these gene transfection experiments, a small interfering (si)RNA approach was used to determine the effect of suppressing endogenous Bcl-2 expression on TR3 mitochondrial targeting. […] After 48 h, lysates were prepared and assayed by immunoblotting using anti-Bcl-2 and anti-β-actin antibodies.

MGC80-3 cells = assay: TR3-dependent apoptosis in MGC80-3 cells with Bcl-2 siRNA; type: cell-based; conditions: control GFP-siRNA-transfected MGC80-3 cells
Method: Bcl-2 siRNAs and antisense oligonucleotides—The target siRNA SMARTPOOLs® for Bcl-2 and Bak and the siRNA oligonucleotide for TR3 (5′-CAG UCC AGC CAU GCU CCU dTdT) (SEQ ID NO: 2) were purchased from Dharmacon Research Inc. Target or control siRNA were transfected at a final concentration of 200 nM into cells at 40% confluency using Oligofectamine reagent (Invitrogen) according to the manufacturer's recommendations. After 48 h, cells were analyzed. Bcl-2 antisense oligonucleotide targeting Bcl-2 and negative control oligonucleotides were obtained from Calbiochem. They (2.5 μM) were transfected into cells at 60% confluency for 36 h before analysis.
The effect of inhibiting endogenous Bcl-2 expression on the TR3-dependent apoptosis in MGC80-3 cells was next analyzed. […] However, 3-Cl-AHPC-induced apoptosis was suppressed by more than half (about 60%) in Bcl-2 siRNA-transfected cells. Similar results were obtained in H460 lung cancer cells. […] Thus, Bcl-2 can manifest a pro-apoptotic phenotype in settings where TR3 is expressed and targets to mitochondria.

TR3/Bcl-2 interaction = assay: Co-IP of TR3 and Bcl-2 in H460 lung cancer cells; type: cell-based; conditions: 10^−6 M for 3 hours
Method: as §1

[2] = tested on: peripheral blood lymphocytes (PBLs); assay: Apoptosis of peripheral blood lymphocytes; type: cell-based, human; conditions: oligonucleotide transfected
Method: Isolation and transfection of human peripheral blood lymphocytes (PBLs)—Leukocyte-enriched buffy coats from San Diego Blood Bank were diluted with 2 volumes of PBS, and PBLs were isolated by centrifuge on Ficoll-paque™ Plus (Amersham Pharmacia biotech). The mononuclear cells were cultured in RPMI containing 10% FBS and 20 μM Hepes. Freshly isolated cells (10^7 cells per transfection) were washed once with PBS containing 0.5% BSA and supernatant was completely discarded so that no residual PBS/BSA covers the pellet. The cells were resuspended in 100 μl of the human T Cell Nucleofector™ solution (Amexa biosystems) and very gently mixed with 1-4 μg DNA in 5 μl. The cell suspension was transferred into a cuvette supplied by Amexa biosystems and electroporated using U-14 program of Nucleofector™ device. The cells were removed from the cuvette quickly by adding 500 μl of the pre-warmed RPMI medium containing 10% FBS and 20 μM Hepes and transferred into 12 well plates containing 1.5 ml of pre-warmed culture medium.

293T cells = assay: DAPI apoptosis assay in 293T cells; type: cell-based, human; conditions: 293T, transfected alone, 36 h, DAPI
Method: Apoptosis assays—For nuclear morphological change analysis, cells were trypsinized, washed with PBS, fixed with 3.7% paraformaldehyde, and stained with DAPI (4,6-diamidino-2-phenylindole) (50 μg/ml) to visualize the nuclei by UV-microscopy. The percentages of apoptotic cells were determined by counting 300 GFP-positive cells, scoring cells having nuclear fragmentation and/or chromatin condensation.
DAPI staining was used to study the apoptotic effect of TR3/Bcl-2 interaction. 293T cells were transfected with GFP-TR3/ΔDBD alone or together with Bcl-2. After 36 h, nuclei were stained by DAPI and nuclear fragmentation and chromatin condensation were identified. Cells were also stained with anti-Bcl-2 antibody, followed by TRITC-conjugated secondary antibody (Sigma). Bcl-2 and GFP-ΔDBD expression and nuclear morphology were visualized by fluorescence microscopy, and the two images were overlaid. […] But, when Bcl-2 was cotransfected, a significant amount of transfected cells underwent apoptosis. For example, approximately 4% of cells transfected with either TR3/ΔDBD or Bcl-2 were apoptotic, compared to 35% of cell transfected with both. […]
To characterize the pro-apoptotic mechanism of Bcl-2 in the setting of TR3-induced apoptosis, various TR3 mutants and Bcl-2 mutants were co-expressed in HEK293T cells. […] Cells displaying nuclear condensation or fragmentation were scored. […]

[3] = tested on: primary dopaminergic neurons; assay: TR3 localization in primary dopaminergic neurons; type: cell-based, rat; conditions: 100 μM, one hour
Method: To further investigate TR3 targeting of mitochondria, rat primary neurons were treated with the dopaminergic neurotoxin 1-methyl-4-phenyl-1,2,3,6-tetrahydropyridine (MPTP). MPTP induces Parkinson's disease in animals. […] Neurons were identified by staining with neuron marker. TR3 and mitochondria (Hsp60) were visualized using confocal microscopy. […] TR3 was found only in the nucleus of non-treated neurons. Thus, TR3 mitochondrial localization plays a role in mediating the effect of dopaminergic neurotoxin in neurons.

Bcl-XL = biological target: T1, Bcl-XL (Homo sapiens, UniProt Q07817); assay: TCTP/Bcl-XL interaction (yeast two-hybrid, immunoprecipitation in HEK293T); type: binding
T1 construct: expressed in transfected cells; host or cells: HEK293T
T1 sequence (Q07817 whole entry): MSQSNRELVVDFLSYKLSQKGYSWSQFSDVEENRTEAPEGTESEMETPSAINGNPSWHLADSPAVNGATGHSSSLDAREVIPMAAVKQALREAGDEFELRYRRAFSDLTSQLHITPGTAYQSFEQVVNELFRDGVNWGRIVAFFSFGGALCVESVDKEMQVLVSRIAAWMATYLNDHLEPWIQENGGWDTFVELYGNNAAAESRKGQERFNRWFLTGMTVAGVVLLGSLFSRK
Text: Bcl-XL cDNA was constructed into the pGilda yeast two-hybrid vector. Using pGilda-Bcl-XL as bait, a human testis cDNA library was used in yeast two-hybrid screening to screen for potential Bcl-XL interacting proteins. pGilda-Bcl-XL and a reporter plasmid pSH18-34 were co-transfected into EGY48 yeast cells. The transfectant yeast cells were then transfected in large scale with yeast two-hybrid library cDNA plasmids. Positive clones were identified through selection in Leucine-deficient media. A total of 95 positive colonies were identified. These positive clones were further examined for a second reporter expression by β-gal filter assays. Among these clones, 29 of them tested positive. These clones were further examined by mating assays to confirm the interaction with Bcl-XL. Ten positive clones were isolated and sequenced to reveal their identity. Two of them encode cDNAs identical to human Translationally-Controlled Tumor Protein (TCTP).
TCTP is a calcium-binding protein with no previous identified role in apoptosis regulation. […] Cell lysates were immunoprecipitated with polyclonal anti-GFP antibody. The immunoprecipitates or the lysates were blotted with anti-HA or anti-GFP antibodies, respectively.

cos-7 cells [4] = assay: TCTP/Bcl-XL co-localization in cos-7 cells; type: cell-based; conditions: cos-7, GFP-TCTP and RFP-Bcl-XL
Text: Images were photographed with a confocal microscope.

cos-7 cells [5] = assay: TCTP-induced apoptosis (DAPI) in cos-7 cells; type: cell-based
Method: Cells were fixed and stained with DAPI 48 hours after transfection (n≧200 total cells evaluated) and the percentage of apoptotic cells was calculated (mean±SD, n=3) (FIG. 7).

Molecule: O=C(O)/C=C/c1ccc(-c2ccc(O)c(C34CC5CC(CC(C5)C3)C4)c2)c(Cl)c1 [3-Cl-AHPC]
- apoptosis (H460 lung cancer cells): extensive apoptosis
- TR3 expression, mitochondrial targeting and apoptosis (H460 lung cancer cells; 10^−6 M for 3 hours): potently induces TR3 expression, mitochondrial targeting and apoptosis
- endogenous TR3 localization [1]: targeted mitochondria
- apoptosis (MGC80-3 cells): resulted in apoptosis
- co-immunoprecipitation of TR3 with anti-Bcl-2 antibody (TR3/Bcl-2 interaction): demonstrated co-immunoprecipitation of TR3

Molecule: 5′-CAG UCC AGC CAU GCU CCU dTdT (CAGUCCAGCCAUGCUCCUTT; siRNA; sugars from the 5' end r18 d2, backbone not given here) [TR3 siRNA, reference compound]
- TPA/ionomycin-induced apoptosis of PBLs [2]: partially inhibited

Molecule: Bcl-2: Bcl-2 expression vector transfected into cells
- apoptotic cells (293T cells): approximately 4%

Molecule: CN1CC=C(c2ccccc2)CC1 [MPTP, 1-methyl-4-phenyl-1,2,3,6-tetrahydropyridine]
- endogenous TR3 localization [3]: found exclusively in the cytoplasm and colocalized with mitochondria

- interaction with Bcl-XL (Bcl-XL): interacts with Bcl-XL
Molecule: TCTP: human Translationally-Controlled Tumor Protein
- subcellular localization with Bcl-XL (cos-7 cells [4]): recruits TCTP from cytosolic location to the mitochondria
- apoptosis (cos-7 cells [5]; expressed together with Bcl-XL versus without Bcl-XL, 48 hours): More apoptosis
- apoptosis (cos-7 cells [5]; over-expressed in cells): induces apoptosis
